Results taken from patent publication US11639332B2, “Methods and compositions of isoindoline-1,3-dione and isoindole prodrugs useful for treating cancer, ulcerative colitis and related inflammatory diseases” (AMGEN (EUROPE) GMBH, priority 2018, dated 2023).
Several values for one entry are separate records, joined by “and”; a condition that tells them apart may be missing. Equal values may be shown once.

Tested on: Trinitrobenzenesulfonic Acid (TNBS) Rat Model of Colonic Inflammation
Test: Trinitrobenzenesulfonic acid (TNBS) rat model of colonic inflammation, oral treatment Days 1-6, evaluation Day 7
Type: in vivo, Sprague-Dawley rats
Set-up: key to Average Colonic Score: sum of adhesions, strictures, ulcers and wall thickness scores
Conditions: for Average # Ulcers / Average Colon Length / Average Colon Weight / Average Colonic Score / Average Ratio (colon length/colon weight) / Average Ulcer Length / Average Wall Thickness / Average Adhesions / Average Colon Wall Thickness, score / Average Strictures / Average Ulcers, score / Average Rat Weight: group mean; for Average # Ulcers / Average Colon Length / Average Colon Weight / Average Colonic Score / Average Ratio (colon length/colon weight) / Average Ulcer Length / Average Wall Thickness / Average Adhesions / Average Colon Wall Thickness, score / Average Strictures / Average Ulcers, score / # Ulcers / Colon Length / Colon Weight / Ratio (colon length/colon weight) / Ulcer Length / Wall Thickness / Colon Wall Thickness, score / Ulcers, score / Strictures / Adhesions / Colonic Score: Day 7; for Average Adhesions / Average Colon Wall Thickness, score: score 0-2; for Average Strictures / Average Ulcers, score: score 0-3; for # Ulcers / Colon Length / Colon Weight / Ratio (colon length/colon weight) / Ulcer Length / Wall Thickness / Colon Wall Thickness, score / Ulcers, score / Strictures / Adhesions / Colonic Score / Rat Weight: individual rats; for Colon Wall Thickness, score: less than 1 mm=0, 1-3 mm=1, >3 mm=2; for Ulcers, score: none=0, linear ulceration <1 cm=1, two linear ulcers <1 cm=2, more sites or one large ulcer=3; for Strictures: score none=0, mild=1, moderate=2, severe, proximal dilatation=3; for Adhesions: score none=0, minimal=1, involving several bowel loops=2; for Colonic Score: sum of adhesions, strictures, ulcers and wall thickness scores
Method: In Vivo Efficacy of PDE4 Inhibitor Prodrug in the Trinitrobenzenesulfonic Acid (TNBS) Rat Model of Colonic Inflammation
2. 1.62 g of prodrug from Example 2 (WB301), lot 2 (MW 587.12) in a clear 20 mL glass vial (orange material) which was stored at 4-8° C.
38 Sprague-Dawley rats (Harlan Sprague-Dawley, Inc. male, PO #599229, R #3450, 200-220 g) were received, individually examined and housed in nine cages of four rats each and one cage containing two rats. No clinical signs of disease or distress were observed. The rats were placed in quarantine with daily inspections. The rats were ear notched (SOP 800) for identification purposes, weighed (RESULTS), and sorted into four treatment groups of eight rats each based upon average body weight. The rats were individually examined and found to be free of any clinical signs of disease or distress. No deaths were recorded during the quarantine period. The rats were released to routine maintenance.
A 16 mg/ml TNBS solution was prepared be adding 2.729 ml picrylsulfonic acid solution (1 M, FLU KA, Cat. 92822, lot CDBB6609V) to 22.271 ml de-ionized water (dH20) and 25 ml 100% ethanol (200 proof, Sigma, Cat. E7023, lot SHBH3633V).
The rats were weighed (RESULTS), anesthetized (SOP1810) and Groups 1-4 were intra-rectally instilled with 4 ml/kg TNBS solution (64 mg/kg), the anus was pinched closed and the rat held inverted for one minute.
400 mg (-)riboflavin was dissolved in 40 ml DMSO (Sigma, Cat. D5879, lot 16K0127) by sonication in a 40° C. water bath for 20 minutes in an amber glass bottle, followed by storage at room temperature overnight to prepare a 10 mg/ml yellow solution.
135 mg NaOH (Fisher Scientific, Cat. S320, lot 066620) was dissolved in 100 ml dH2O to prepare a 1.35 mg/ml solution. 128.46 mg prednisolone 21-hemisuccinate sodium salt (Sigma, Cat. P4153, lot BCBB6136V, salt factor 1.339) was dissolved in 9.59 ml (-)riboflavin/DMSO followed by addition of 9.59 ml PEG400 (Sigma, Cat. 91893, lot BCBB7720). 28.781 aqueous NaOH was added with sonication to prepare a 2 mg/ml solution for Group 4. 44 mg WB301 was vortexed in 2.19 ml (-)riboflavin/DMSO to yield an orange solution followed by addition of 2.19 ml PEG400. 6.621 ml aqueous NaOH was added with sonication to prepare a 4 mg/ml solution for Group 1. 132 mg WB301 was vortexed in 2.19 ml (-)riboflavin/DMSO to yield an orange solution followed by addition of 2.19 ml PEG400. 6.621 ml aqueous NaOH was added with sonication to prepare a 12 mg/ml solution for Group 2. 6.6 mg apremilast was vortexed in 2.2 ml (-)riboflavin/DMSO to yield an orange solution followed by addition of 6.6 ml PEG400. 2.2 ml dH2O was added to prepare a 0.6 mg/ml solution for Group 3.
The rats were weighed (RESULTS) and daily oral (PO, SOP 1651) dosing at 5 ml/kg was initiated as in TABLE 1.
The rats were weighed (RESULTS) and the animals were dosed as described above daily. WB301 and apremilast solutions were prepared fresh daily as described above.
The rats were weighed (RESULTS) anesthetized, a midline incision was made in the abdomen and the colon was evaluated for adhesions and stricture (RESULTS). The colon was removed and the length recorded (RESULTS). A midline incision was made the entire length of the colon, the contents removed and the colon weight and colon wall thickness recorded (RESULTS). A section of the colon was preserved in 20 volumes of 10% neutral buffered formalin (Richard-Allan Scientific, Cat. 5701, lot 378532, exp07/2020). The carcasses were disposed of.
3) involving several bowel loops=2
4) severe, proximal dilatation=3
2) linear ulceration <1 cm=1
3) two linear ulcers <1 cm=2
4) more sites of ulceration or one large ulcer=3

[1] = Group 1, 20 mg/kg once daily oral, starting 24 hours after TNBS
[2] = Group 2, 60 mg/kg once daily oral
[3] = Group 2, 60 mg/kg PO daily, study day 0, day of TNBS, before dosing
[4] = Group 2, 60 mg/kg PO daily, study day 1, before first dose
[5] = Group 2, 60 mg/kg PO daily, study day 2
[6] = Group 2, 60 mg/kg PO daily, study day 3
[7] = Group 2, 60 mg/kg PO daily, study day 4
[8] = Group 2, 60 mg/kg PO daily, study day 5
[9] = Group 2, 60 mg/kg PO daily, study day 6
[10] = Group 2, 60 mg/kg PO daily, study day 7
[11] = Group 2, 60 mg/kg PO daily, study day −3, before TNBS and dosing

What does the source list for `CCOc1cc([C@@H](CS(C)(=O)=O)N2C(=O)c3cccc(/N=N/c4ccc(O)c(C(=O)O)c4)c3C2=O)ccc1OC` [WB301]?
effect on TNBS-induced damage across doses (20 and 60 mg/kg once daily oral, starting 24 hours after TNBS): dose-dependent reduction in the TNBS-induced damage; amelioratory effect on TNBS-induced damage [1]: no apparent amelioratory effect was observed; weight loss [1]: 15%; macroscopic disease scores [2]: improvement of the macroscopic disease scores; study day on which rats began to recover from TNBS-induced weight loss [2]: 6 days; reduction in overall colonic score (Group 2, 60 mg/kg once daily oral, assuming a colonic score of 10 for vehicle-treated rats): 25%; stool observation in cages/bedding (Group 2, 60 mg/kg once daily oral, starting DAY 4, indicative of partial colon function): Diarrhea was observed in the bedding; Average # Ulcers (Group 1, 20 mg/kg PO daily): 1; Average Colon Length (Group 1, 20 mg/kg PO daily): 11.4 cm; Average Colon Weight (Group 1, 20 mg/kg PO daily): 6.652 g; Average Colonic Score (Group 1, 20 mg/kg PO daily): 9.1; Average Ratio (colon length/colon weight) (Group 1, 20 mg/kg PO daily): 1.915 cm/g; Average Ulcer Length (Group 1, 20 mg/kg PO daily): 6.3 cm; Average Wall Thickness (Group 1, 20 mg/kg PO daily): 3.4 mm; Average Adhesions (Group 1, 20 mg/kg PO daily): 1.5; Average Colon Wall Thickness, score (Group 1, 20 mg/kg PO daily): 1.8; Average Strictures (Group 1, 20 mg/kg PO daily): 2.9; Average Ulcers, score (Group 1, 20 mg/kg PO daily): 3.0; Average Rat Weight (Group 1, 20 mg/kg PO daily, study day 0, day of TNBS, before dosing): 219 g; Average Rat Weight (Group 1, 20 mg/kg PO daily, study day 1, before first dose): 213 g; Average Rat Weight (Group 1, 20 mg/kg PO daily, study day 2): 203 g; Average Rat Weight (Group 1, 20 mg/kg PO daily, study day 3): 197 g; Average Rat Weight (Group 1, 20 mg/kg PO daily, study day 4): 195 g; Average Rat Weight (Group 1, 20 mg/kg PO daily, study day 5): 189 g; Average Rat Weight (Group 1, 20 mg/kg PO daily, study day 6): 189 g; Average Rat Weight (Group 1, 20 mg/kg PO daily, study day 7): 186 g; Average Rat Weight (Group 1, 20 mg/kg PO daily, study day −3, before TNBS and dosing): 215 g; Average # Ulcers (Group 2, 60 mg/kg PO daily): 1; Average Colon Length (Group 2, 60 mg/kg PO daily): 14.4 cm; Average Colon Weight (Group 2, 60 mg/kg PO daily): 4.604 g; Average Colonic Score (Group 2, 60 mg/kg PO daily): 7.5; Average Ratio (colon length/colon weight) (Group 2, 60 mg/kg PO daily): 3.891 cm/g; Average Ulcer Length (Group 2, 60 mg/kg PO daily): 5.6 cm; Average Wall Thickness (Group 2, 60 mg/kg PO daily): 2.6 mm; Average Adhesions (Group 2, 60 mg/kg PO daily): 1.3; Average Colon Wall Thickness, score (Group 2, 60 mg/kg PO daily): 1.1; Average Strictures (Group 2, 60 mg/kg PO daily): 2.1; Average Ulcers, score (Group 2, 60 mg/kg PO daily): 3.0; Average Rat Weight [3]: 216 g; Average Rat Weight [4]: 207 g; Average Rat Weight [5]: 200 g; Average Rat Weight [6]: 193 g; Average Rat Weight [7]: 192 g; Average Rat Weight [8]: 191 g; Average Rat Weight [9]: 195 g; Average Rat Weight [10]: 196 g; Average Rat Weight [11]: 215 g; # Ulcers (Group 1, 20 mg/kg PO daily): 1; Colon Length (Group 1, 20 mg/kg PO daily): 12.0 cm and 10.0 cm and 10.5 cm and 11.0 cm (3×) and 12.5 cm and 13.5 cm; Colon Weight (Group 1, 20 mg/kg PO daily): 9.124 g and 7.629 g and 3.180 g and 4.920 g and 9.000 g and 8.300 g and 6.200 g and 4.862 g; Ratio (colon length/colon weight) (Group 1, 20 mg/kg PO daily): 1.315 cm/g and 1.311 cm/g and 3.302 cm/g and 2.236 cm/g and 1.389 cm/g and 1.325 cm/g and 2.177 cm/g and 2.262 cm/g; Ulcer Length (Group 1, 20 mg/kg PO daily): 6.0 cm (3×) and 6.3 cm and 7.0 cm and 5.5 cm and 6.8 cm and 6.5 cm; Wall Thickness (Group 1, 20 mg/kg PO daily): 3.5 mm and 3.2 mm and 4.0 mm (2×) and 3.7 mm (2×) and 2.5 mm (2×); Colon Wall Thickness, score (Group 1, 20 mg/kg PO daily): 2 (6×) and 1 (2×); Ulcers, score (Group 1, 20 mg/kg PO daily): 3; Strictures (Group 1, 20 mg/kg PO daily): 3 (7×) and 2; Adhesions (Group 1, 20 mg/kg PO daily): 1 (4×) and 2 (4×); Colonic Score (Group 1, 20 mg/kg PO daily): 9 (2×) and 10 (4×) and 8 and 7; # Ulcers (Group 2, 60 mg/kg PO daily): 1; Colon Length (Group 2, 60 mg/kg PO daily): 15.0 cm (5×) and 14.5 cm and 14.0 cm and 11.5 cm; Colon Weight (Group 2, 60 mg/kg PO daily): 2.551 g and 1.969 g and 6.164 g and 5.418 g and 9.037 g and 4.831 g and 4.140 g and 2.719 g; Ratio (colon length/colon weight) (Group 2, 60 mg/kg PO daily): 5.880 cm/g and 7.618 cm/g and 2.352 cm/g and 2.769 cm/g and 1.549 cm/g and 3.105 cm/g and 3.623 cm/g and 4.229 cm/g; Ulcer Length (Group 2, 60 mg/kg PO daily): 3.5 cm and 4.0 cm and 6.0 cm (2×) and 6.5 cm (2×) and 6.7 cm and 5.5 cm; Wall Thickness (Group 2, 60 mg/kg PO daily): 2.0 mm (4×) and 3.0 mm (2×) and 4.0 mm and 2.5 mm; Colon Wall Thickness, score (Group 2, 60 mg/kg PO daily): 1 (7×) and 2; Ulcers, score (Group 2, 60 mg/kg PO daily): 3; Strictures (Group 2, 60 mg/kg PO daily): 1 (2×) and 0 and 3 (5×); Adhesions (Group 2, 60 mg/kg PO daily): 0 (2×) and 2 (4×) and 1 (2×); Colonic Score (Group 2, 60 mg/kg PO daily): 5 and 4 and 9 (3×) and 8 and 10 and 6; Rat Weight [3]: 217 g and 215 g and 214 g and 222 g and 208 g and 211 g and 220 g (2×); Rat Weight [4]: 206 g and 202 g and 213 g (2×) and 207 g and 203 g (2×) and 212 g; Rat Weight [5]: 205 g and 199 g and 204 g and 200 g (2×) and 195 g and 206 g and 193 g; Rat Weight [6]: 199 g and 200 g (2×) and 197 g and 196 g and 184 g (2×) and 183 g; Rat Weight [7]: 192 g and 212 g and 200 g (2×) and 193 g and 179 g and 183 g and 176 g; Rat Weight [8]: 196 g and 226 g and 191 g and 192 g and 182 g and 174 g and 199 g and 171 g; Rat Weight [9]: 207 g and 233 g and 193 g and 197 g and 184 g and 172 g and 199 g and 171 g; Rat Weight [10]: 220 g and 244 g and 187 g and 189 g and 178 g and 169 g and 196 g and 181 g; Rat Weight [11]: 214 g and 212 g and 215 g and 219 g and 208 g and 210 g and 220 g (2×)
